Assay results taken from patent US8697841B2, “Peptide for transmigration across blood brain barrier and delivery systems comprising the same” (Industrial Technology Research Institute, priority 2009, dated 2014).

Experiment: Hot plate test (PD study)
Assay type: in vivo, mice
Conditions: 7.5 mg/kg EM-1, intravenous injection
Description: Hot-plate test was used to evaluate thermal pain reflexes due to footpad contact with a heated surface. The response of the animals to the hot plate reflects a nociceptive behavior, which involves complex circuit integration in the central nervous system.
Briefly, the mice were individually placed on a […] hot plate apparatus and the time until onset of licking the hindlimb was measured. Basal latency was approximate 2 sec, and cut-off time in the absence of a response (T2) was set at 45 sec. The inhibition of the hindlimb-licking responses were expressed as percent maximal possible effect (% MPE) which was calculated as [(T1−T0)/(T2−T0)]×100, where T0 and T1 were the hot-plate latencies before and after intravenous injection of the EM-1 formulations. The hot-plate latency was determined 10, 20, 30, 60, 120, 180 and 210 min after the formulation injection (7.5 mg/kg EM-1), and the AUC (the area under a curve) values for MPE % versus time (min) plots were calculated.

Substance: endomorphin-1 [EM-1]
- analgesic effect (nociceptive responses) in hot-plate test: did not reduce the nociceptive responses
